The source made the active and inactive calls. The rule behind the calls is not given here.
Columns and labels:
[1] = Inhibition of purified reconstituted bovine brain V-ATPase; parameters: species or system Bos taurus
HCC4017 = test: Growth inhibition of human HCC4017 cells assessed as reduction in cell viability at 0.1 nM to 10 uM; format: functional
[2] = Inhibition of V-ATPase (unknown origin); parameters: species or system Homo sapiens
Bos taurus = species: Bos taurus; test: Inhibition of purified reconstituted bovine brain V-ATPase at 2 uM

Compound	IC50 [1] [nM]	growth inhibition (GI) (HCC4017)	IC50 [2] [nM]	inhibition (Bos taurus)
O=C(C#Cc1ccccc1)N/C=C/C[C@H]1C[C@@H](O)CC/C=C/Cc2cccc(C(F)F)c2C(=O)O1	500	inactive		
CC/C=C\C=C/C(=O)N/C=C/C[C@H]1C[C@@H](O)[C@@H](C)C/C=C/Cc2cccc(O)c2C(=O)O1 [SALICYLIHALAMIDE A]			< 1	
C[C@H]1C/C=C/Cc2cccc(O)c2C(=O)O[C@@H](C/C=C/NC(=O)C#Cc2ccccc2)C[C@H]1O [SALIPHENYLHALAMIDE]	1	Active		
O=C(C#Cc1ccccc1)N/C=C/C[C@H]1C[C@@H](O)CC/C=C/Cc2cc(O)ccc2C(=O)O1		inactive		inactive
O=C(C#Cc1ccccc1)N/C=C/C[C@H]1C[C@@H](O)CC/C=C/Cc2cc(F)ccc2C(=O)O1	500	inactive		
O=C(C#Cc1ccccc1)N/C=C/C[C@H]1C[C@@H](O)CC/C=C/Cc2cccc(O)c2C(=O)N1	3	Active		
O=C(C#Cc1ccccc1)N/C=C/C[C@H]1C[C@@H](O)CC/C=C/Cc2cccc(O)c2C(=O)O1	5	Active		
O=C(C#Cc1ccccc1)N/C=C/C[C@H]1C[C@@H](O)CC/C=C/Cc2cc([N+](=O)[O-])ccc2C(=O)O1	300	inactive		
O=C(C#Cc1ccccc1)N/C=C/C[C@H]1C[C@@H](O)CC/C=C/Cc2cccc(F)c2C(=O)O1	1000	inactive		
Nc1cccc2c1C(=O)O[C@@H](C/C=C/NC(=O)C#Cc1ccccc1)C[C@@H](O)CC/C=C/C2	300	inactive		
O=C(C#Cc1ccccc1)N/C=C/C[C@H]1C[C@@H](O)CC/C=C/Cc2cccc([N+](=O)[O-])c2C(=O)O1	1000	inactive		

From ChEMBL document CHEMBL3621058, “Synthesis and structure-activity studies of the V-ATPase inhibitor saliphenylhalamide (SaliPhe) and simplified analogs” (Bioorg Med Chem Lett, 2015)
